From the NIST ThermoML archive (doi:10.1016/j.tca.2009.01.008)

Legend:
[1] = molar heat capacity at constant pressure; settings: 101.33 kPa, Liquid, Vacuum adiabatic calorimetry
[2] = molar heat capacity at constant pressure; xn = mol fraction of the nth substance listed; settings: 101 kPa, Liquid, Vacuum adiabatic calorimetry

CC(O)CO (centres undefined) [1,2-propanediol]
[1]
Settings | molar heat capacity at constant pressure [J/K/mol]
303.15 K | 192.8
313.15 K | 197
323.15 K | 201.3
333.15 K | 206
343.15 K | 210.6
353.15 K | 215.3

CC(O)CO (centres undefined) [1,2-propanediol] + O
molar heat capacity at constant pressure [J/K/mol], [2]
Settings | 303.15 K | 313.15 K | 323.15 K | 333.15 K | 343.15 K | 353.15 K
x1 = 0.2 | 101.9 | 103 | 104.3 | 105.8 | 107.2 | 108.8
x1 = 0.4 | 127 | 129.4 | 132.1 | 134.9 | 137.7 | 140.7
x1 = 0.5 | 138.9 | 141.9 | 145.1 | 148.7 | 152.1 | 155.6
x1 = 0.6 | 150.3 | 153.9 | 157.7 | 161.8 | 165.8 | 169.9
x1 = 0.8 | 172.1 | 176.4 | 180.9 | 185.8 | 190.6 | 195.5

OCCCOCCCO [4-oxa-1,7-heptanediol]
[1]
Settings | molar heat capacity at constant pressure [J/K/mol]
303.15 K | 329
313.15 K | 335.3
323.15 K | 341.5
333.15 K | 348.8
343.15 K | 355.8
353.15 K | 363.8

OCCCOCCCO [4-oxa-1,7-heptanediol] + O
molar heat capacity at constant pressure [J/K/mol], [2]
Settings | 303.15 K | 313.15 K | 323.15 K | 333.15 K | 343.15 K | 353.15 K
x1 = 0.2 | 129.1 | 130.8 | 132.7 | 135 | 137.1 | 139.5
x1 = 0.4 | 181.8 | 184.9 | 188.2 | 191.9 | 195.5 | 199.6
x1 = 0.5 | 207.2 | 210.9 | 214.7 | 219.3 | 223.5 | 228.3
x1 = 0.6 | 231.9 | 236.2 | 240.7 | 245.8 | 250.8 | 256.3
x1 = 0.8 | 279.7 | 285 | 290.4 | 296.6 | 302.7 | 309.4

OCCOCCO [diethylene glycol]
[1]
Settings | molar heat capacity at constant pressure [J/K/mol]
303.15 K | 248.2
313.15 K | 251.3
323.15 K | 255
333.15 K | 259.2
343.15 K | 263.8
353.15 K | 266.8

OCCOCCO [diethylene glycol] + O
molar heat capacity at constant pressure [J/K/mol], [2]
Settings | 303.15 K | 313.15 K | 323.15 K | 333.15 K | 343.15 K | 353.15 K
x1 = 0.2 | 111.8 | 113.5 | 115.3 | 117.4 | 119.3 | 121.7
x1 = 0.4 | 148.7 | 150.7 | 153.3 | 155.9 | 158.7 | 161.8
x1 = 0.5 | 167.6 | 169.9 | 172.6 | 175.5 | 178.7 | 182.2
x1 = 0.6 | 184.5 | 187.1 | 190.3 | 193.6 | 197.3 | 201.2
x1 = 0.8 | 217.9 | 221.2 | 225 | 229.1 | 233.6 | 238.5

OCCOCCOCCO [triethylene glycol]
[1]
Settings | molar heat capacity at constant pressure [J/K/mol]
303.15 K | 336.3
313.15 K | 339.5
323.15 K | 343.1
333.15 K | 347.9
343.15 K | 353.7
353.15 K | 359.3

OCCOCCOCCO [triethylene glycol] + O
molar heat capacity at constant pressure [J/K/mol], [2]
Settings | 303.15 K | 313.15 K | 323.15 K | 333.15 K | 343.15 K | 353.15 K
x1 = 0.2 | 129.3 | 131 | 132.9 | 135.1 | 137.2 | 139.7
x1 = 0.4 | 184.1 | 186.3 | 189 | 192.1 | 195.2 | 198.7
x1 = 0.5 | 211.3 | 213.6 | 216.5 | 219.8 | 223.4 | 227.3
x1 = 0.6 | 237.8 | 240.5 | 243.7 | 249.7 | 251.8 | 256.1
x1 = 0.8 | 288.3 | 291.8 | 295.7 | 300.3 | 306 | 311.3
